Results reported in patent US20200001109A1, “Methods For Treating Hyperbilirubinemia With Stannsoporfin And Phototherapy” (INFACARE PHARMACEUTICAL CORPORATION, priority 2016, published 2020).

Experiments:
[1] = test system: total serum bilirubin (TSB); test: Phase 2b randomized, placebo-controlled trial of single IM stannsoporfin with phototherapy: efficacy on TSB; format: in vivo, human infants; settings: for Rebound Hyperbilirubinemia N: TSB at or above PT threshold after discontinuation of initial PT; for LS Mean Difference vs Placebo in TSB at 48 hrs: difference in TSB percentage change from baseline vs placebo plus phototherapy; for PT Failure N: exchange transfusion, IVIG use, readmission for hyperbilirubinemia or re-started PT; for Time at which TSB crosses at or below the PT threshold, Median: plus phototherapy; for LS Mean Percentage Change in TSB at 48 hrs: single IM injection plus phototherapy, change from baseline, LOCF
Protocol: (§1) A Phase 2b multicenter, double-blind, randomized, placebo-controlled parallel group safety and efficacy trial of two doses of stannsoporfin administered as a single intramuscular injection in combination with phototherapy in term and near-term infants has been proposed and performed.
(§2) Infants will be randomized to one of three treatment arms: placebo, 3.0 mg/kg, or 4.5 mg/kg of stannsoporfin in a 1:1:1 ratio. Infants aged 0 to 48 hours (at the time the qualifying TSB is drawn) with ABO or Rh incompatibility who are DAT-positive, or age 0 to 72 hours (at the time the qualifying TSB is drawn) with G6PD deficiency, confirmed by a documented blood test, who require the initiation of phototherapy are eligible for the study. In addition, patients aged 0 to 48 hours (at the time the qualifying TSB is drawn) with ABO or Rh incompatibility who are DAT negative (or status unknown), and have an increased reticulocyte count (>6%), and require the initiation of phototherapy are eligible for the study.
Inclusion Criteria: 1) Term and near-term infants ≥35 and ≤43 weeks gestational age (GA), age 0-48 hours (at the time the qualifying TSB is drawn) with ABO or Rh incompatibility (anti C, c, D, E or e) who are DAT-positive, or age 0-72 hours (at the time the qualifying TSB is drawn) with G6PD deficiency as confirmed by a documented blood test; OR 2) Term and near-term infants ≥35 and ≤43 weeks GA, age 0-48 hours (at the time the qualifying TSB is drawn) with ABO or Rh incompatibility (anti C, c, D, E or e) who are DAT-negative (or status unknown) and have an increased reticulocyte count (>6%); parental or guardian written consent; birth weight ≥2500 grams; TSB at or above the age-specific threshold for initiating phototherapy per the AAP guidelines (see FIG. 1 and Tables 1, 2 and 3); and parents agree to observe light precautions for 10 days post treatment
Once the patient's TSB is at or above the age-specific threshold for phototherapy and all inclusion and no exclusion criteria are met (including laboratory criteria), patients will be immediately randomized to receive a single intramuscular dose of either placebo (saline), 3.0 mg/kg of stannsoporfin or 4.5 mg/kg of stannsoporfin.
Criteria for discontinuing phototherapy: The criteria for discontinuing phototherapy will be standardized. If a TSB measurement is obtained during phototherapy treatment that is below the age-specific threshold for phototherapy (FIG. 1), phototherapy should be discontinued. In order to check for rebound hyperbilirubinemia, a TSB level is to be obtained between 6 and 12 hours after phototherapy is discontinued (must be done before discharge). If the patient remains in the hospital and continues on phototherapy past 48 hours further assessments and procedures are to be conducted as listed in the Time and Event Table (Table 8).
Initiation of Phototherapy: Once the TSB result has been received, the administration of study drug and initiation of phototherapy should occur as soon as practical. phototherapy should be started within a window of no more than ±30 minutes from IMP administration.
Phototherapy must be narrow spectrum blue light with a single overhead unit. The height of the phototherapy unit should be adjusted to obtain an irradiance of 30 microwatts/cm2/nm at the level of the patient's abdomen. Irradiance should be measured and adjusted to maintain 30 microwatts/cm2/nm, until phototherapy is discontinued. The recordings are to be documented in the eCRF.
Monitoring during phototherapy: It is essential to protect the patient's eyes with opaque eye patches. These must be checked periodically to ensure complete eye coverage during phototherapy. Use of biliblankets or home phototherapy is not permitted. TSB levels will be done at 6, 12, 18, 24, 30, 36±2 h, and 48 hours±6 h after study drug administration (Table 8). If the patient continues on phototherapy past 48 hours, the TSB will be obtained every 12±6 h. […]

[2] = Phase 2b trial of stannsoporfin with phototherapy: safety (adverse events); format: in vivo, human infants
Protocol: as §1, §2
Safety outcome measures are: Incidence of adverse events and serious adverse events, changes in vital sign measurements, results of physical exam (PE) including eye and hearing assessment, results of neurologic exam, ECG assessments, clinical laboratory tests including hematology, serum chemistries, liver function and renal function tests. Adverse events and SAEs will be summarized for each treatment group and overall for both stannsoporfin treatment groups with the proportion of patients reporting each event. Actual values and change from baseline in vital signs, physical and neurologic exam and laboratory test parameters will be summarized for each treatment group and overall for both stannsoporfin treatment groups with descriptive statistics at each assessment obtained. Changes in ECG findings, ophthalmologic and audiology assessments will be summarized for each treatment group and overall for both stannsoporfin treatment groups with descriptive statistics at each assessment obtained, including changes from baseline to Day 30 (early term). Efficacy and safety parameters will also be analyzed according to DAT status.
The results from a Phase 2b multicenter, double blind, randomized, placebo controlled parallel group safety and efficacy trial of two doses of stannsoporfin administered as a single intramuscular (IM) injection in combination with phototherapy (PT) in term and near-term infants, all with an ABO/Rh incompatibility were highly statistically significant and positive. Ninety-one neonates (aged 24 hours of age, range 7 to 54 hours), all at medium to high risk of severe hyperbilirubinemia, all with an ABO/Rh incompatibility, birth weights of 2580 to 4930 grams, and gestational age of 35 to 42 weeks, were randomized to one of three treatment arms: placebo (saline), 3.0 mg/kg stannsoporfin, or 4.5 mg/kg of stannsoporfin. All were included in the intent-to-treat-primary efficacy and safety analyses.
TEAEs occurred in 59% of Stannsoporfin treated infants vs 52% among placebo. Serious TEAEs occurred in 15% of Stannsoporfin treated infants vs 20% of placebo. TEAEs related to phototherapy (eg skin rash, erythema) occurred in 16% of Stannsoporfin treated infants vs 10% of placebo.

[3] = test system: total serum bilirubin (TSB); settings: 3.0 and 4.5 mg/kg stannsoporfin patients receiving phototherapy; previous study (placebo 41%); cited from earlier work
[4] = Stannsoporfin 3.0 mg/kg (N = 30)
[5] = Stannsoporfin 4.5 mg/kg (N = 31)
[6] = Stannsoporfin Combined (N = 61)
[7] = both high dose (4.5 mg/kg) and low dose (3.0 mg/kg), compared with phototherapy and placebo
[8] = all treatment arms of the trial

SMILES: CCC1=C(C)c2cc3[n-]c(cc4[n-]c(cc5nc(cc1n2)C(C)=C5CC)c(C)c4CCC(=O)O)c(CCC(=O)O)c3C.[Cl-].[Cl-].[Sn+4] [Stannsoporfin, tin-mesoporphyrin IX dichloride]
- PT Failure (%) [1, 4]: (10%)
- PT Failure Odds Ratio vs Placebo [1, 4]: 0.31
- Rebound Hyperbilirubinemia (%) [1, 4]: (9%)
- Rebound Hyperbilirubinemia N [1, 4]: 0/30
- LS Mean Difference vs Placebo in TSB at 48 hrs [1, 4]: −31.69
- PT Failure N [1, 4]: 3/30
- Time at which TSB crosses at or below the PT threshold, Median [1, 4]: 11.8 h
- LS Mean Percentage Change in TSB at 48 hrs [1, 4]: −9.5%
- PT Failure (%) [1, 5]: (3%)
- PT Failure Odds Ratio vs Placebo [1, 5]: 0.09
- Rebound Hyperbilirubinemia (%) [1, 5]: (3%)
- Rebound Hyperbilirubinemia N [1, 5]: 1/31
- LS Mean Difference vs Placebo in TSB at 48 hrs [1, 5]: −27.69
- PT Failure N [1, 5]: 1/31
- Time at which TSB crosses at or below the PT threshold, Median [1, 5]: 10.6 h
- LS Mean Percentage Change in TSB at 48 hrs [1, 5]: −5.5%
- PT Failure (%) [1, 6]: (7%)
- PT Failure Odds Ratio vs Placebo [1, 6]: 0.20
- Rebound Hyperbilirubinemia (%) [1, 6]: (2%)
- Rebound Hyperbilirubinemia N [1, 6]: 1/61
- LS Mean Difference vs Placebo in TSB at 48 hrs [1, 6]: −29.69
- PT Failure N [1, 6]: 4/61
- Time at which TSB crosses at or below the PT threshold, Median [1, 6]: 11.6 h
- LS Mean Percentage Change in TSB at 48 hrs [1, 6]: −7.4%
- effect on percentage change in total serum bilirubin (TSB) at 24 hours after drug administration [1, 7]: highly statistically significant (P<0.0001) positive effect
- effect on percentage change in total serum bilirubin (TSB) at 48 hours after drug administration [1, 7]: highly significant (P<0.0001) positive effect
- effect on percentage change in total serum bilirubin (TSB) at 48 hours after drug administration ([1]; both high dose (4.5 mg/kg) and low dose (3.0 mg/kg), compared with phototherapy and placebo, listed as stannsoporfin): statistically significant positive effect
- Serious TEAEs, proportion of infants ([2]; Stannsoporfin treated infants (both doses) plus phototherapy, vs 20% of placebo): 15%
- treatment-emergent adverse events (TEAEs), proportion of infants ([2]; Stannsoporfin treated infants (both doses) plus phototherapy, vs 52% among placebo): 59%
- TEAEs related to phototherapy (eg skin rash, erythema), proportion of infants ([2]; Stannsoporfin treated infants (both doses), vs 10% of placebo): 16%
- discontinuation of the study due to an adverse event [2, 8]: no infant discontinued the study due to an adverse event
- infant deaths [2, 8]: no infant deaths
- safety signals ([2]; either dose (3.0 or 4.5 mg/kg)): no safety signals
- increase in TSB at 48 hours [3]: 15%
